The target of test [1] is T1, PTP-PEST (Homo sapiens, UniProt Q05209).
T1 construct: PTP PEST Catalytic Domain construct (Amino Acid:1-300) with 6 His tag at N-terminal; 6 His (N, cleaved yes); made in house; host or cells: Sf9 insect cells (Sf9-VECL-01), Bac-to-Bac baculovirus system
T1 sequence (Q05209 1-300): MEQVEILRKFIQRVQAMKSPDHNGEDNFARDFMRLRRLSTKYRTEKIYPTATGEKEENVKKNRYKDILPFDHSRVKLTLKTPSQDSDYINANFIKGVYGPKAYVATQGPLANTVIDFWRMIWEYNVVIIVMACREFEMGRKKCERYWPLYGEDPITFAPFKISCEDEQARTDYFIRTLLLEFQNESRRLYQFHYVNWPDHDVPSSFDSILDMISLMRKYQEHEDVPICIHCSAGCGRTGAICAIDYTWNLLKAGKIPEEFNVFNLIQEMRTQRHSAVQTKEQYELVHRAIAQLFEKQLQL
Nature of the test: Thermal stability of PTP-PEST by differential scanning fluorimetry and differential scanning calorimetry. The conditions noted are these: in the presence of Auranofin; apo form shows a single unfolding event.

Test [2] has as its system phosphorylation of Paxillin and p130Cas in H9C2 cells. Nature of the test: Immunoblotting of H9c2 total lysates for pTyr of Paxillin and p130Cas. It counts as cell-based. As to conditions: H9C2 cells treated with indicated concentrations. Here is the method:
(§1) Hearts from mice received different treatment were gently homogenized in ice-cold RIPA buffer [250 mM Tris-HCl pH 7.4, 750 mM NaCl, detergent mix (5% NP-40, 2.5% Na-deoxycholate and 0.5% SDS), and 1× protease inhibitor cocktail (EDTA free)] containing phosphatase inhibitors (2 mM Na3VO4, 10 mM NaF, and 10 mM Na2P2O7). The homogenates were centrifuged at 16,100×g at 4° C. for 10 minutes to remove the debris. Protein concentrations were determined by Bradford protein assay. Equal amounts of protein extract from those mice were separated by SDS-PAGE on an 8% or 10% polyacrylamide gel and then transferred to PVDF membrane. Membranes were incubated with indicated primary antibody at 4° C. overnight followed by incubated with secondary antibodies for 1 hour at room temperature. The protein abundance was detected by the signal intensity of each specific band. H9C2 cell lines were purchased from ATCC® organization, U.S. Cell cultures were maintained in Dulbecco modified Eagle medium (DMEM) supplemented with 10% fetal bovine serum (FBS) and 1% Penicillin/Streptomycin at 37° C. incubator in a 5% CO2 humid atmosphere.
A general note: A western blot detects proteins with antibodies after separation by electrophoresis.

In test [3] the test system is myocardial PTP activity. Nature of the test: Overall myocardial PTP activity by pNPP assay in heart extracts of I/R mice. In kind it is in vivo, mouse. The conditions noted are these: 2 mg/kg IP ten min before reperfusion; four hours post-I/R. As for the experimental part:
We anesthetized the mouse with 5% isoflurane mixed with room air until loss of sensation of pain and then maintained the mouse in anesthesia status with 2% isoflurane mixed with room air through the whole procedure. The mouse's body temperature was maintained at 37° C. by a heating pad. After the mouse was intubated, we provided artificial ventilation to the mouse with a small animal ventilator. Then the chest cavity was opened at the second intercostal space and homemade chest retractors were utilized to widen the incision. We pulled the pericardium apart carefully and exposed the left anterior descending artery (LAD). A 7-0 silk was put underneath the LAD at the position of the tip of the left auricle, a 6 mm length of PE-10 tube was put on the surface of the LAD, and then a double knot was made to occlude the blood flow of LAD. The success of ligation was confirmed by […] anterior wall of the LV. For the reperfusion group, the LAD knot would be untied for the purpose of reperfusion after 1 hour of ischemia. For the sham operation group, all procedures were the same except for the knot that occluded the LAD flow. […] The released p-nitrophenolate ion is measured by spectrophotometry reading the absorbance at 405 nm. […]

Test [4] deals with myocardial protein tyrosine phosphorylation. Nature of the test: Immunoblotting of heart extracts of I/R mice (anti-pTyr, p-Paxillin, p-p130cas, p-ErbB-2). It counts as in vivo, mouse. As to conditions: 2 mg/kg IP ten min before reperfusion; four hours post-I/R. Here is the method: (§2) We anesthetized the mouse with 5% isoflurane mixed with room air until loss of sensation of pain and then maintained the mouse in anesthesia status with 2% isoflurane mixed with room air through the whole procedure. The mouse's body temperature was maintained at 37° C. by a heating pad. After the mouse was intubated, we provided artificial ventilation to the mouse with a small animal ventilator. Then the chest cavity was opened at the second intercostal space and homemade chest retractors were utilized to widen the incision. We pulled the pericardium apart carefully and exposed the left anterior descending artery (LAD). A 7-0 silk was put underneath the LAD at the position of the tip of the left auricle, a 6 mm length of PE-10 tube was put on the surface of the LAD, and then a double knot was made to occlude the blood flow of LAD. The success of ligation was confirmed by paling the anterior wall of the LV. For the reperfusion group, the LAD knot would be untied for the purpose of reperfusion after 1 hour of ischemia. For the sham operation group, all procedures were the same except for the knot that occluded the LAD flow. After the successful procedure, we left the silk in situ, closed the chest cavity and weaned the animal from the ventilator.
as §1, with “band.” for “band. H9C2 cell lines were purchased from ATCC® organization, U.S. Cell cultures were maintained in Dulbecco modified Eagle medium (DMEM) supplemented with 10% fetal bovine serum (FBS) and 1% Penicillin/Streptomycin at 37° C. incubator in a 5% CO2 humid atmosphere.”

The test system of test [5] is I/R mice. Nature of the test: Serum troponin I measurement in I/R mice. The conditions noted are these: 2 mg/kg IP. It counts as in vivo, mouse. As for the experimental part: as §2
Before the mouse was sacrificed, blood was drawn from the facial vein. The blood was put in the room temperature for 30 minutes and then centrifuged at 4° C. for 15 minutes at 5000 rpm. After centrifuging, the serum is collected for troponin I measurement with troponin I ELISA kit (KT-469, Kamiya Biomedical Company) according to the manufacture's protocol.

Consider `CC(=O)OC[C@H]1O[C@@H]([S-])[C@H](OC(C)=O)[C@@H](OC(C)=O)[C@@H]1OC(C)=O.CCP(CC)CC.[Au+]` [Auranofin, auranofin], for which, in test [1], the “Unfolding events of PTP-PEST (DSF and DSC)” value is recorded as “two unfolding events”. Further, the “Phosphorylation on the specific Tyr residue in Paxillin or p130Cas” value in test [2] is recorded as “increase”. Also, the “Overall myocardial PTP activity” value in test [3] is given as “significantly suppressed”. Besides, in test [4], the “Decreased protein tyrosine phosphorylation in the I/R heart (anti-pTyr)” value is recorded as “reversed”; the “I/R-induced decrease of pTyr signaling in Paxillin and p130Cas” value is on record as “restored”; the “I/R-suppressed phosphorylation of Tyr1248 in ErbB-2” value is listed as “restored”. Further, the “Serum troponin I level” value in test [5] (4 hours post-I/R) is reported as “reduced”. Further, the “Serum troponin I level” value in test [5] (one day after reperfusion) is recorded as “lower”.

For the origin of these results see patent publication US20190298664A1, “METHOD AND KIT FOR MYOCARDIAL REPERFUSION, AND METHOD FOR ATTENUATING OR REDUCING MYOCARDIAL REPERFUSION INJURY” (Academia Sinica, priority 2018, published 2019).
